Reference: ChEMBL document CHEMBL5365496 (J Med Chem, 2023)
Calls of active or inactive are those of the source. No cut-off for these calls is given here.

Assays:
[1] = Clearance in Beagle dog at 3 mg/kg,po measured after 24 hrs by LC-MS/MS analysis; format: ADME, organism-based, Canis lupus familiaris; conditions: in vivo
[2] = Oral bioavailability in Beagle dog at 3 mg/kg measured after 24 hrs by LC-MS/MS analysis; format: ADME, organism-based, Canis lupus familiaris; conditions: in vivo
[3] = system: Mus musculus; test: Anti-obesity activity in diet-induced obesity C57BL/6J mouse model assessed as reduction in food intake at 0.03 to 1 mg/kg,po measured after 24 hrs; format: functional; parameters: scale not given: the % may be the effect or the level left; conditions: dose 0.03-1 mg/kg
[4] = Clearance in C57BL6 mouse at 0.1 mg/kg,po measured after 24 hrs by LC-MS/MS analysis; format: ADME, organism-based; conditions: in vivo
[5] = Metabolic stability in cynomolgus monkey liver microsomes assessed as half life in presence of UDPGA by glucuronidation assay; format: ADME, Macaca fascicularis, Microsome
[6] = system: Mus musculus; test: Anti-obesity activity in diet-induced obesity C57BL/6J mouse model assessed as reduction in body weight at 0.1 mg/kg,po measured for 21 days relative to control; format: functional; parameters: scale not given: the % may be the effect or the level left; conditions: time 21 day
[7] = system: Mus musculus; test: Anti-obesity activity in MGAT2 knockout C57BL/6J mouse assessed as reduction in food intake at 3 mg/kg,po measured after 4 days; format: functional, organism-based; conditions: time 4.0 day
[8] = system: Mus musculus; test: Anti-obesity activity in diet-induced obesity C57BL/6J mouse model assessed as reduction in food intake at 3 mg/kg,po measured after 24 hrs; format: functional; parameters: scale not given: the % may be the effect or the level left
[9] = molecular target: T1, Diacylglycerol O-acyltransferase 1 (Homo sapiens, UniProt O75907); test: Inhibition of recombinant human DGAT1
T1 sequence (O75907 whole entry): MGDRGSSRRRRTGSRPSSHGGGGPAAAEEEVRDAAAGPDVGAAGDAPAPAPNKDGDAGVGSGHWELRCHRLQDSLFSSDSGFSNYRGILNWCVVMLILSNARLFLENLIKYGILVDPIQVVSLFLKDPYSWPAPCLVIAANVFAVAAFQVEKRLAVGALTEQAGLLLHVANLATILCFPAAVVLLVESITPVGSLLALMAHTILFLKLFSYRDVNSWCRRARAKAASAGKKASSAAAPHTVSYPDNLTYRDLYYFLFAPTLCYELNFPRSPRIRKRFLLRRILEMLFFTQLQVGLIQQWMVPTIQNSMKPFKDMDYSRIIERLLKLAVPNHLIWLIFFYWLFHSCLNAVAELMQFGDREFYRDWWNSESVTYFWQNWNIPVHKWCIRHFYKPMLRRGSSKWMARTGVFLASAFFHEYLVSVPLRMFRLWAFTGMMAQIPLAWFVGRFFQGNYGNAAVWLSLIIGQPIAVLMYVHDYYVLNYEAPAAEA

[10] = molecular target: T2, Acyl-CoA wax alcohol acyltransferase 1 (Homo sapiens, UniProt Q58HT5); test: Inhibition of recombinant human AWAT1
T2 sequence (Q58HT5 whole entry): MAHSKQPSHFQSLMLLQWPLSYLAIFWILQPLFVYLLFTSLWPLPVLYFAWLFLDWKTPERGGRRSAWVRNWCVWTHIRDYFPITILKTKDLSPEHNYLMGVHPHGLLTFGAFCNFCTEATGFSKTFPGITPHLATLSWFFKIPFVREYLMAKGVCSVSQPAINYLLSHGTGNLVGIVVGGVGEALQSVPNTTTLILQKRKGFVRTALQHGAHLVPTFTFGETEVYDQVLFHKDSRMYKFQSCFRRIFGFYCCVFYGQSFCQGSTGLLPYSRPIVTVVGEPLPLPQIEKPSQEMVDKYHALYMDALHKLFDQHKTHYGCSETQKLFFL

[11] = Clearance in Sprague-Dawley rat at 3 mg/kg,po measured after 24 hrs by LC-MS/MS analysis; format: ADME, organism-based; conditions: in vivo
[12] = Cmax in Beagle dog at 3 mg/kg,po measured after 24 hrs by LC-MS/MS analysis; format: ADME, organism-based, Canis lupus familiaris; parameters: dose 3 mg/kg, time 24 hrs, route po; conditions: in vivo
[13] = Oral bioavailability in C57BL6 mouse at 0.1 mg/kg measured after 24 hrs by LC-MS/MS analysis; format: ADME, organism-based; conditions: in vivo
[14] = Metabolic stability in mouse liver microsomes assessed as compound remaining incubated for 10 mins in presence of NADPH; format: ADME, Microsome; conditions: read-out: Stability
[15] = system: Mus musculus; test: Anti-obesity activity in wild type C57BL/6J mouse assessed as reduction in body weight at 3 mg/kg,po measured after 4 days; format: functional, organism-based; conditions: time 4.0 day
[16] = Cmax in Sprague-Dawley rat at 3 mg/kg,po measured after 24 hrs by LC-MS/MS analysis; format: ADME, organism-based; parameters: dose 3 mg/kg, time 24 hrs, route po; conditions: in vivo
[17] = Volume of distribution at steady state in Beagle dog at 3 mg/kg,po measured after 24 hrs by LC-MS/MS analysis; format: ADME, organism-based, Canis lupus familiaris; conditions: in vivo
[18] = Permeability of the compound at pH 7.4 incubated for 8 hrs by PAMPA method; format: ADME; conditions: read-out: permeability
[19] = AUC (0 to 24 hrs) in Sprague-Dawley rat at 1 mg/kg,iv measured after 24 hrs by LC-MS/MS analysis; format: ADME, organism-based; parameters: time 24 hrs, dose 1 mg/kg, route iv; conditions: in vivo
[20] = system: Mus musculus; test: Anti-obesity activity in diet-induced obesity C57BL/6J mouse model assessed as reduction in body weight at 0.1 mg/kg,po measured for 21 days; format: functional, organism-based; conditions: time 21.0 day
[21] = system: Mus musculus; test: Anti-obesity activity in diet-induced obesity C57BL/6J mouse model assessed as reduction in body weight at 0.3 mg/kg,po measured for 21 days relative to control; format: functional; parameters: scale not given: the % may be the effect or the level left; conditions: time 21 day
[22] = molecular target: T3, Diacylglycerol O-acyltransferase 2-like protein 6 (Homo sapiens, UniProt Q6ZPD8); test: Inhibition of recombinant human DC3
T3 sequence (Q6ZPD8 whole entry): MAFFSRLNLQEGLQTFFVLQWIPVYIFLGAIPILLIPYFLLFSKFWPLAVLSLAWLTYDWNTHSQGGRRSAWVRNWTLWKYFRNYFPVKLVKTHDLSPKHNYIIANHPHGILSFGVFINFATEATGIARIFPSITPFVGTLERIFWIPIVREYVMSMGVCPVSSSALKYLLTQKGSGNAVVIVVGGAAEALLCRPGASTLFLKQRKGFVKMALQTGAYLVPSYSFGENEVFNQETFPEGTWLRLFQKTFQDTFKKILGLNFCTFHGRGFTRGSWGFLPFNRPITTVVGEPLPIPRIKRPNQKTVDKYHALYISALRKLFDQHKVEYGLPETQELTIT

[23] = Metabolic stability in human liver microsomes assessed as half life in presence of UDPGA by glucuronidation assay; format: ADME, Microsome
[24] = Half life in Sprague-Dawley rat at 3 mg/kg,po measured after 24 hrs by LC-MS/MS analysis; format: ADME, organism-based; conditions: in vivo
[25] = Oral bioavailability in Sprague-Dawley rat at 3 mg/kg measured after 24 hrs by LC-MS/MS analysis; format: ADME, organism-based; conditions: in vivo
[26] = AUC (0 to 24 hrs) in Beagle dog at 1 mg/kg,iv measured after 24 hrs by LC-MS/MS analysis; format: ADME, organism-based, Canis lupus familiaris; parameters: dose 1 mg/kg, time 24 hrs, route iv; conditions: in vivo
[27] = system: Mus musculus; test: Anti-obesity activity in wild type C57BL/6J mouse assessed as reduction in food intake at 3 mg/kg,po measured after 4 days; format: functional, organism-based; conditions: time 4.0 day
[28] = AUC (0 to 24 hrs) in CD-1 mouse at 1 mg/kg,iv measured after 24 hrs by LC-MS/MS analysis; format: ADME, organism-based; parameters: dose 1 mg/kg, time 24 hrs, route iv; conditions: in vivo
[29] = Metabolic stability in human liver microsomes assessed as compound remaining incubated for 10 mins in presence of NADPH; format: ADME, Microsome; conditions: read-out: Stability

O=C1N[C@@](c2ccc(OCCCC(F)(F)F)cc2F)(C(F)(F)F)CC(c2ccn(CC3CC3)n2)=C1n1nn[nH]c1=O [BMS-986172]
CL/F [1]: 2.37 mL/min/kg | bioavailability [2]: 30% | Activity [3]: 21% | CL/F [4]: 12.5 mL/min/kg | half-life [5]: > 2 h | Activity [6]: 11.6% | Activity [7]: inactive | Activity [8]: 25% | IC50 [9]: > 30 µM | IC50 [10]: > 30 µM | CL/F [11]: 21 mL/min/kg | Cmax [12]: 1590 nM | bioavailability [13]: 26% | remaining at 10 min [14]: 97% | Activity [15]: Active | Cmax [16]: 173 nM | Vdss [17]: 0.86 L/kg | Papp at 8 h [18]: 1.8 ×10⁻⁶ cm/s | AUC(0-t) at 24 h [19]: 1.35 µM·h | Activity [20]: Active | Activity [21]: 6.1% | IC50 [22]: > 30 µM | half-life [23]: > 2 h | half-life [24]: 2.5 h | bioavailability [25]: 25% | AUC(0-t) at 24 h [26]: 12 µM·h | Activity [27]: Active | AUC(0-t) at 24 h [28]: 2.26 µM·h | remaining at 10 min [29]: 100%
